Laboratory results reported in patent publication US20060100226A1, “2-Thiopyrimidinones as therapeutic agents” (priority 2004, published 2006).

Key:
[1] = target: T1, murine MEKK2 (mMEKK2) (Mus musculus, UniProt Q61083); experiment: MEKK2 PhosphoELISA (mMEKK2/MKK4); type: biochemical; conditions: substrate MKK4/SKK1 (unactive), ATP final 10 μM, O.D. 450 nm
T1 sequence (Q61083 1-619): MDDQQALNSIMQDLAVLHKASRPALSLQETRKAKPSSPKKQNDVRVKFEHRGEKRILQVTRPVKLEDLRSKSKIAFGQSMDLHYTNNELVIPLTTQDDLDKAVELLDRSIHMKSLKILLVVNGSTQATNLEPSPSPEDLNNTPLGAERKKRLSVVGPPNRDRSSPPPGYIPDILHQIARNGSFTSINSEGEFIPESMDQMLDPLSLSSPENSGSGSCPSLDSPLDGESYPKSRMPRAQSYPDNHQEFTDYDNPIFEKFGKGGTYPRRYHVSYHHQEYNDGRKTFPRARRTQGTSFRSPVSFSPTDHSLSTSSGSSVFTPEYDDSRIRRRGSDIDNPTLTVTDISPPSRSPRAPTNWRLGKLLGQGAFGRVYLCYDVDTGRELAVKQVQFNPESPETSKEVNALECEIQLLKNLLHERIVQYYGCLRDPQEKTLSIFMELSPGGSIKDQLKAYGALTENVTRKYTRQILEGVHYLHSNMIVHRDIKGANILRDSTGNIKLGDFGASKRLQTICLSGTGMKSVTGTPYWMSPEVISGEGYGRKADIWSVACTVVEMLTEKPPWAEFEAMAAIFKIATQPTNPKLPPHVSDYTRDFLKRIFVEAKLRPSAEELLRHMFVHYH
Description: Another useful method for assessing protein kinase inhibition, and specifically MEKK2 inhibition, of compounds of the invention involves the MEKK2 phospho-antibody enzyme-linked immunosorbent assay (PhosphoELISA). This screening panel, which involves relatively few steps, is a useful indicator of potential inhibitors of MEKK2. Reactions to murine MEKK2 are observed as optical density measurements at an absorbance of 450 nm. Inhibitory activities can be expressed in terms of IC50, where IC50 is the molar concentration of compound required to inhibit protein kinase binding by 50%.
A phospho-antibody enzyme-linked immunosorbent assay (PhosphoELISA) was used to screen potential inhibitors of MEKK2. The assay was performed as follows: Compounds to be tested were weighed and solubilized in DMSO (Sigma) to a stock concentration of 10 mM. Serial dilutions starting from 1 mM were prepared with additional DMSO. These dilutions were further diluted to 250 μM in kinase reaction buffer [20 mM Hepes pH 7.5, 5 mM MgCl2, 1 mM DTT (Dithiothreitol-Sigma), 1 mM NaVO4 (sodium vanadate- Sigma). A 25 μl aliquot of this solution was transferred to a glutathione coated 96-well microplate (Pierce). A stock aliquot containing 50-125 ng of murine MEKK2 (mMEKK2) was added to each well and incubated on the microplate for 10 minutes at room temperature. A 25 μl solution of MKK4/SKK1 (unactive) was diluted 1:200 in kinase assay buffer and added to the reaction plate followed by 50 μl of 25 μM ATP (adenosine triphosphate) to afford a final well concentration of 10 μM. The reaction was allowed to proceed for 60 minutes at room temperature before washing 3 times with wash buffer [100 mM phosphate pH 7.5, 0.05% TWEEN 20 (Sigma)]. A solution of anti-phospho MKK4/SEK1 antibody (Calbiochem) and biotin anti rabbit IgG (Jackson Immunoresearch) was diluted 1:2500 in kinase reaction buffer and added to the appropriate wells. The reaction was incubated for 60 minutes at room temperature. The microplate was washed 3 times with wash buffer and 100 ul of streptavidin horseradish peroxidase (HRP-Pierce) was added and incubated for 30 minutes at room temperature. The microplate was washed 3 times with wash buffer and 100 μl of TMB (3,3′,5,5′-tetramethylbenzidine-Sigma) was added. The assay was allowed to develop for 15-20 minutes then the reaction was stopped with the addition of 100 μl of 0.2 N sulfuric acid. The optical density (O.D.) of the plate was read on the Victor™ plate reader using the absorbance at 450 nm.

[2] = target: T1, murine MEKK2 (mMEKK2); experiment: TR-FRET kinase assay (mMEKK2/MBP); type: biochemical; conditions: substrate biotin MBP, 60 minutes at room temperature
Outline: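 mMEKK2 was preincubated 10 min with compound in pH 7.5 Hepes/MgCl2/DTT/vanadate buffer, then biotin-MBP, anti-phospho-MBP antibody and ATP (5 uM solution added) were added and the reaction ran 60 min at room temperature. After EDTA stop, europium anti-mouse IgG and Cy5-streptavidin were added and TR-FRET was read at 615/665 nm.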

Compound	IC50 [1] [µM]	IC50 [2] [µM]
COc1cccc(-c2nc(SCc3cccc(NCc4ccc(Cl)c(Cl)c4)c3)[nH]c(=O)c2C#N)c1 [Example 1a, 2-[3-(3,4-Dichloro-benzylamino)-benzylsulfanyl]-4-(3-methoxy-phenyl)-6-oxo-1,6-dihydro-pyrimidine-5-carbonitrile]	< 1	< 1
COc1ccc(-c2nc(SCc3cccc(NCc4ccc(Cl)c(Cl)c4)c3)[nH]c(=O)c2C#N)cc1OC [Example 1b, 2-[3-(3,4-Dichloro-benzylamino)-benzylsulfanyl]-4-(3,4-dimethoxy-phenyl)-6-oxo-1,6-dihydro-pyrimidine-5-carbonitrile]	< 1	< 5
COc1ccc(-c2nc(SCc3cccc(NCc4ccc(Cl)c(Cl)c4)c3)[nH]c(=O)c2C#N)cc1-c1cccs1 [Example 1c]	< 1	< 5
COc1cccc(-c2nc(SCc3cccc(NCc4cccc(Oc5ccc(Cl)cc5)c4)c3)[nH]c(=O)c2C#N)c1 [Example 1cc]	< 1	< 1
COc1cccc(-c2nc(SCc3cccc(NCc4ccccc4)c3)[nH]c(=O)c2C#N)c1 [Example 1d]	< 5	< 5
COc1cccc(-c2nc(SCc3cccc(NCc4ccc5cccc(O)c5n4)c3)[nH]c(=O)c2C#N)c1 [Example 1v]	< 1	< 1

Results, then the compound that gave them:

IC50 [1] [µM]	IC50 [2] [µM]	Compound
< 1	< 5	N#Cc1c(-c2ccccc2-c2cc3ccccc3s2)nc(SCc2cccc(NC(=O)c3ccc(Cl)c(Cl)c3)c2)[nH]c1=O [Example 2bb, N-{3-[4-(2-Benzo[b]thiophen-2-yl-phenyl)-5-cyano-6-oxo-1,6-dihydro-pyrimidin-2-ylsulfanylmethyl]-phenyl}-3,4-dichloro-benzamide]
< 5	< 5	N#Cc1c(-c2ccccc2OC(F)(F)F)nc(SCc2cccc(NC(=O)c3ccc(Cl)c(Cl)c3)c2)[nH]c1=O [Example 2dd, 3,4-Dichloro-N-{3-[5-cyano-6-oxo-4-(2-trifluoromethoxy-phenyl)-1,6-dihydro-pyrimidin-2-ylsulfanylmethyl]-phenyl}-benzamide]
< 1	< 10	N#Cc1c(-c2ccccc2C(F)(F)F)nc(SCc2cccc(NC(=O)c3ccc(Cl)c(Cl)c3)c2)[nH]c1=O [Example 2ee, 3,4-Dichloro-N-{3-[5-cyano-6-oxo-4-(2-trifluoromethyl-phenyl)-1,6-dihydro-pyrimidin-2-ylsulfanylmethyl]-phenyl}-benzamide]
< 5	< 5	N#Cc1c(-c2ccc(C(F)(F)F)cc2)nc(SCc2cccc(NC(=O)c3ccc(Cl)c(Cl)c3)c2)[nH]c1=O [Example 2ff, 3,4-Dichloro-N-{3-[5-cyano-6-oxo-4-(4-trifluoromethyl-phenyl)-1,6-dihydro-pyrimidin-2-ylsulfanylmethyl]-phenyl}-benzamide]
< 5	> 40	N#Cc1c(-c2cccc(C(F)(F)F)c2)nc(SCc2cccc(NC(=O)c3ccc(Cl)c(Cl)c3)c2)[nH]c1=O [Example 2gg, 3,4-Dichloro-N-{3-[5-cyano-6-oxo-4-(3-trifluoromethyl-phenyl)-1,6-dihydro-pyrimidin-2-ylsulfanylmethyl]-phenyl}-benzamide]
< 5	< 5	COc1cccc(-c2nc(SCc3cccc(NC(=O)c4ccc(Cl)c(Cl)c4)c3)[nH]c(=O)c2C#N)c1 [Example 2h]
< 20	< 40	N#Cc1c(-c2ccc(OC(F)(F)F)cc2)nc(SCc2cccc(NC(=O)c3ccc(Cl)c(Cl)c3)c2)[nH]c1=O [Example 2hh, 3,4-Dichloro-N-{3-[5-cyano-6-oxo-4-(4-trifluoromethoxy-phenyl)-1,6-dihydro-pyrimidin-2-ylsulfanylmethyl]-phenyl}-benzamide]
< 10	< 10	COc1cccc(-c2nc(SCc3cccc(NC(=O)c4c(-c5ccccc5)noc4C)c3)[nH]c(=O)c2C#N)c1 [Example 2i]
> 40		CCN(CC)CCOc1ccc(-c2nc(SCc3cccc(NC(=O)c4ccc(Cl)c(Cl)c4)c3)[nH]c(=O)c2C#N)cc1 [Example 4z]
